Data from paper PMC5218480 (PLoS ONE, 2017).

Tested on: MV-4-11 cells
Experiment: Gene expression microarray analysis (Affymetrix PrimeView) and GSEA
Format: cell-based, human
Design: RFU PODN (11730768_x_at) / Fold change /veh PODN (11730768_x_at) / RFU LINC00158 (11744669_a_at) / Fold change /veh LINC00158 (11744669_a_at) / RFU DUSP10 (11751237_a_at) / Fold change /veh DUSP10 (11751237_a_at) / RFU ID3 (11757404_x_at) / Fold change /veh ID3 (11757404_x_at) / RFU PLEKHG5 (11737974_s_at) / Fold change /veh PLEKHG5 (11737974_s_at) / RFU LRRC4B (11730491_at) / Fold change /veh LRRC4B (11730491_at) / RFU GIMAP4 (11747438_a_at) / Fold change /veh GIMAP4 (11747438_a_at) / RFU KRT8 (11758183_x_at) / Fold change /veh KRT8 (11758183_x_at) / RFU CNN1 (11734310_a_at) / Fold change /veh CNN1 (11734310_a_at) / RFU VPS37D (11726825_at) / Fold change /veh VPS37D (11726825_at) / RFU C10orf10 (11716522_x_at) / Fold change /veh C10orf10 (11716522_x_at) / RFU KIR2DL2 /// KIR2DL4 /// KIR2DL5A /// KIR2DL5B /// KIR2DS1 /// KIR2DS2 /// KIR2DS3 /// KIR2DS4 /// KIR3DL3 /// KIR3DL3 /// KIR3DS1 (11738374_at) / Fold change /veh KIR2DL2 /// KIR2DL4 /// KIR2DL5A /// KIR2DL5B /// KIR2DS1 /// KIR2DS2 /// KIR2DS3 /// KIR2DS4 /// KIR3DL3 /// KIR3DL3 /// KIR3DS1 (11738374_at) / RFU C1QL1 (11718748_at) / Fold change /veh C1QL1 (11718748_at) / RFU TMPRSS4 (11747572_a_at) / Fold change /veh TMPRSS4 (11747572_a_at) / RFU HAMP (11756126_x_at) / Fold change /veh HAMP (11756126_x_at) / RFU RNFT2 (11725882_a_at) / Fold change /veh RNFT2 (11725882_a_at) / RFU NR4A2 (11747474_a_at) / Fold change /veh NR4A2 (11747474_a_at) / RFU ABCC12 (11746883_a_at) / Fold change /veh ABCC12 (11746883_a_at) / RFU TMEM136 (11760407_x_at) / Fold change /veh TMEM136 (11760407_x_at) / RFU CLDN22 /// WWC2 (11732394_at) / Fold change /veh CLDN22 /// WWC2 (11732394_at) / RFU HLA-DPB1 (11760878_x_at) / Fold change /veh HLA-DPB1 (11760878_x_at) / RFU SPINT1 (11716480_a_at) / Fold change /veh SPINT1 (11716480_a_at) / RFU GAP43 (11754022_s_at) / Fold change /veh GAP43 (11754022_s_at) / RFU A4GNT (11735810_at) / Fold change /veh A4GNT (11735810_at) / RFU PRB3 (11715151_x_at) / Fold change /veh PRB3 (11715151_x_at) / RFU TUBB4B (11761932_at) / Fold change /veh TUBB4B (11761932_at) / RFU CAPN14 (11732068_a_at) / Fold change /veh CAPN14 (11732068_a_at) / RFU TMCC2 (11721928_a_at) / Fold change /veh TMCC2 (11721928_a_at) / RFU IRGQ (11745062_a_at) / Fold change /veh IRGQ (11745062_a_at) / RFU FAM174B (11720279_a_at) / Fold change /veh FAM174B (11720279_a_at) / RFU TMPRSS4 (11748680_a_at) / Fold change /veh TMPRSS4 (11748680_a_at) / RFU FAM212B (11763350_a_at) / Fold change /veh FAM212B (11763350_a_at) / RFU PLEKHG5 (11743358_a_at) / Fold change /veh PLEKHG5 (11743358_a_at) / RFU ZSCAN30 (11745921_a_at) / Fold change /veh ZSCAN30 (11745921_a_at) / RFU CMKLR1 (11741424_a_at) / Fold change /veh CMKLR1 (11741424_a_at) / RFU LOC101060620 /// MAPK8IP1 (11723275_at) / Fold change /veh LOC101060620 /// MAPK8IP1 (11723275_at) / RFU SPTSSB (11747773_x_at) / Fold change /veh SPTSSB (11747773_x_at) / RFU PRSS12 (11739890_at) / Fold change /veh PRSS12 (11739890_at) / RFU BIN1 (11741810_x_at) / Fold change /veh BIN1 (11741810_x_at) / RFU WNT11 (11732464_a_at) / Fold change /veh WNT11 (11732464_a_at) / RFU C10orf10 (11716521_a_at) / Fold change /veh C10orf10 (11716521_a_at) / RFU C5orf56 (11738089_at) / Fold change /veh C5orf56 (11738089_at) / RFU CYB561 (11721691_x_at) / Fold change /veh CYB561 (11721691_x_at) / RFU ANKRD19P (11752326_a_at) / Fold change /veh ANKRD19P (11752326_a_at) / RFU OR2T12 /// OR2T33 /// OR2T8 (11738714_s_at) / Fold change /veh OR2T12 /// OR2T33 /// OR2T8 (11738714_s_at) / RFU VCAN (11748164_a_at) / Fold change /veh VCAN (11748164_a_at) / RFU JSRP1 (11732532_at) / Fold change /veh JSRP1 (11732532_at) / RFU KRTAP10-11 (11738290_x_at) / Fold change /veh KRTAP10-11 (11738290_x_at) / RFU MYO3A (11730013_a_at) / Fold change /veh MYO3A (11730013_a_at) / RFU EBF3 (11725865_a_at) / Fold change /veh EBF3 (11725865_a_at) / RFU CAMK2N1 (11719241_x_at) / Fold change /veh CAMK2N1 (11719241_x_at) / RFU C5orf56 (11738088_a_at) / Fold change /veh C5orf56 (11738088_a_at) / RFU OLFML3 (11715873_a_at) / Fold change /veh OLFML3 (11715873_a_at) / RFU LOC100653217 /// NTM (11731650_a_at) / Fold change /veh LOC100653217 /// NTM (11731650_a_at) / RFU MAPK11 (11762145_a_at) / Fold change /veh MAPK11 (11762145_a_at) / RFU FIZ1 (11724087_x_at) / Fold change /veh FIZ1 (11724087_x_at) / RFU OASL (11726364_x_at) / Fold change /veh OASL (11726364_x_at) / RFU SOX15 (11748057_x_at) / Fold change /veh SOX15 (11748057_x_at) / RFU CD79A (11719716_a_at) / Fold change /veh CD79A (11719716_a_at) / RFU HIST1H1D (11736915_at) / Fold change /veh HIST1H1D (11736915_at) / RFU CASKIN2 (11723855_a_at) / Fold change /veh CASKIN2 (11723855_a_at) / RFU LOC730098 (11760151_x_at) / Fold change /veh LOC730098 (11760151_x_at) / RFU OR4N2 (11742367_at) / Fold change /veh OR4N2 (11742367_at) / RFU PRRT2 (11749266_a_at) / Fold change /veh PRRT2 (11749266_a_at) / RFU SNX32 (11753110_a_at) / Fold change /veh SNX32 (11753110_a_at) / RFU CDHR5 (11726645_a_at) / Fold change /veh CDHR5 (11726645_a_at) / RFU RCAN1 (11760418_a_at) / Fold change /veh RCAN1 (11760418_a_at) / RFU FAM167A (11723789_a_at) / Fold change /veh FAM167A (11723789_a_at) / RFU FAM26E (11764081_at) / Fold change /veh FAM26E (11764081_at) / RFU ISYNA1 (11749810_s_at) / Fold change /veh ISYNA1 (11749810_s_at) / RFU ACY1 (11761880_at) / Fold change /veh ACY1 (11761880_at) / RFU 11764098_at / Fold change /veh 11764098_at / RFU SAMD14 (11745864_x_at) / Fold change /veh SAMD14 (11745864_x_at) / RFU NPB (11741838_a_at) / Fold change /veh NPB (11741838_a_at) / RFU TMPRSS6 (11731388_a_at) / Fold change /veh TMPRSS6 (11731388_a_at) / RFU KRTAP10-2 (11738614_at) / Fold change /veh KRTAP10-2 (11738614_at) / RFU ARHGAP8 /// PRR5-ARHGAP8 (11727945_x_at) / Fold change /veh ARHGAP8 /// PRR5-ARHGAP8 (11727945_x_at) / RFU KRTAP5-7 /// NADSYN1 (11734609_at) / Fold change /veh KRTAP5-7 /// NADSYN1 (11734609_at) / RFU RASL12 (11751679_a_at) / Fold change /veh RASL12 (11751679_a_at) / RFU CDKN2B (11736163_a_at) / Fold change /veh CDKN2B (11736163_a_at) / RFU PRF1 (11729649_at) / Fold change /veh PRF1 (11729649_at) / RFU, ZNF638 /// ZNF638-IT1 / Fold change vs veh, ZNF638 /// ZNF638-IT1 / RFU, PANK3 / Fold change vs veh, PANK3 / RFU, SH3YL1 / Fold change vs veh, SH3YL1 / RFU, ZEB2 / Fold change vs veh, ZEB2 / RFU, NRIP1 / Fold change vs veh, NRIP1 / RFU, PTTG1IP / Fold change vs veh, PTTG1IP / RFU, CAPN2 / Fold change vs veh, CAPN2 / RFU, MED14 / Fold change vs veh, MED14 / RFU, SNORA58 / Fold change vs veh, SNORA58 / RFU, C1orf63 / Fold change vs veh, C1orf63 / RFU, LRRFIP1 / Fold change vs veh, LRRFIP1 / RFU, NDUFAF7 / Fold change vs veh, NDUFAF7 / RFU, SLC12A2 / Fold change vs veh, SLC12A2 / RFU, IBTK / Fold change vs veh, IBTK / RFU, ESF1 / Fold change vs veh, ESF1 / Fold change vs veh, TMEM50B / RFU, TAOK1 / Fold change vs veh, TAOK1 / RFU, ACBD3 / Fold change vs veh, ACBD3 / RFU, TMA16 / Fold change vs veh, TMA16 / RFU, RWDD3 / Fold change vs veh, RWDD3 / RFU, BCAT1 / Fold change vs veh, BCAT1 / RFU, EDEM3 / Fold change vs veh, EDEM3 / RFU, TMEM33 / Fold change vs veh, TMEM33 / RFU, WDR75 / Fold change vs veh, WDR75 / RFU, AHCTF1 / Fold change vs veh, AHCTF1 / RFU, TFRC / Fold change vs veh, TFRC / RFU, ZDHHC17 / Fold change vs veh, ZDHHC17 / RFU, NOM1 / Fold change vs veh, NOM1 / RFU, ARL8B / Fold change vs veh, ARL8B / RFU, ZBTB11 / Fold change vs veh, ZBTB11 / RFU, TAMM41 / Fold change vs veh, TAMM41 / RFU, KIAA1704 /// LOC100996395 / Fold change vs veh, KIAA1704 /// LOC100996395 / RFU, ING1 / Fold change vs veh, ING1 / RFU, TRMT61B / Fold change vs veh, TRMT61B / RFU, FUBP3 / Fold change vs veh, FUBP3 / RFU, TP53 / Fold change vs veh, TP53 / RFU, TNKS2 / Fold change vs veh, TNKS2 / RFU, ZFP14 / Fold change vs veh, ZFP14 / RFU, ACTR2 / Fold change vs veh, ACTR2 / RFU, PPP3R1 / Fold change vs veh, PPP3R1 / RFU, PIK3R1 / Fold change vs veh, PIK3R1 / RFU, HNRNPA1 / Fold change vs veh, HNRNPA1 / RFU, RNF170 / Fold change vs veh, RNF170 / RFU, ZNF28 / Fold change vs veh, ZNF28 / RFU, RNGTT / Fold change vs veh, RNGTT / RFU, OGT / Fold change vs veh, OGT / RFU, BRD1 / Fold change vs veh, BRD1 / RFU, MARS / Fold change vs veh, MARS / RFU, ZNF655 / Fold change vs veh, ZNF655 / RFU, FAHD1 / Fold change vs veh, FAHD1 / RFU, BDP1 / Fold change vs veh, BDP1 / RFU, LRRCC1 / Fold change vs veh, LRRCC1 / RFU, ARID1A / Fold change vs veh, ARID1A / RFU, ZNF146 / Fold change vs veh, ZNF146 / RFU, ZNF330 / Fold change vs veh, ZNF330 / RFU, GPN3 / Fold change vs veh, GPN3 / RFU, C9orf123 / Fold change vs veh, C9orf123 / RFU, N4BP2L2 / Fold change vs veh, N4BP2L2 / RFU, ARFIP1 / Fold change vs veh, ARFIP1 / RFU, FAM179B / Fold change vs veh, FAM179B / RFU, BCL10 / Fold change vs veh, BCL10 / RFU, UHRF1BP1L / Fold change vs veh, UHRF1BP1L / RFU, BET1 / Fold change vs veh, BET1 / RFU, CNOT2 / Fold change vs veh, CNOT2 / RFU, ZNF268 / Fold change vs veh, ZNF268 / Fold change vs veh, ZNF507 / RFU, DGCR2 / Fold change vs veh, DGCR2 / RFU, WDSUB1 / Fold change vs veh, WDSUB1 / Fold change vs veh, HSP90B1 /// MIR3652 / RFU, ADSS / Fold change vs veh, ADSS / RFU, GK / Fold change vs veh, GK / RFU, ZNF148 / Fold change vs veh, ZNF148 / RFU, TAF9 / Fold change vs veh, TAF9 / RFU, SLC1A5 / Fold change vs veh, SLC1A5 / RFU, SLMO2 / Fold change vs veh, SLMO2 / RFU, ABCC4 / Fold change vs veh, ABCC4 / RFU, LOC101060439 /// RAP1B / Fold change vs veh, LOC101060439 /// RAP1B / RFU, RFX7 / Fold change vs veh, RFX7 / RFU, GTPBP10 / Fold change vs veh, GTPBP10 / RFU, CNEP1R1 / Fold change vs veh, CNEP1R1 / RFU, BIVM-ERCC5 /// ERCC5 / Fold change vs veh, BIVM-ERCC5 /// ERCC5 / RFU, ILF3 / Fold change vs veh, ILF3 / RFU 11762660_at / Fold change /veh 11762660_at / RFU VCAN (11757783_s_at) / Fold change /veh VCAN (11757783_s_at) / RFU DDX43 (11728927_at) / Fold change /veh DDX43 (11728927_at) / RFU KRT8 (11758188_x_at) / Fold change /veh KRT8 (11758188_x_at) / RFU NKD1 (11759106_at) / Fold change /veh NKD1 (11759106_at) / RFU SRD5A1 (11742802_a_at) / Fold change /veh SRD5A1 (11742802_a_at) / RFU TPSAB1 /// TPSB2 (11721975_s_at) / Fold change /veh TPSAB1 /// TPSB2 (11721975_s_at) / RFU GSTM3 (11746129_a_at) / Fold change /veh GSTM3 (11746129_a_at) / RFU IL23R (11737362_x_at) / Fold change /veh IL23R (11737362_x_at) / RFU TMEM51 (11727254_a_at) / Fold change /veh TMEM51 (11727254_a_at) / RFU PIWIL2 (11732686_x_at) / Fold change /veh PIWIL2 (11732686_x_at) / RFU ORM1 (11744905_x_at) / Fold change /veh ORM1 (11744905_x_at) / RFU CCDC152 (11743942_at) / Fold change /veh CCDC152 (11743942_at) / RFU ECM1 (11717891_a_at) / Fold change /veh ECM1 (11717891_a_at) / RFU IL23R (11748794_a_at) / Fold change /veh IL23R (11748794_a_at) / RFU TNFAIP8L3 (11732012_x_at) / Fold change /veh TNFAIP8L3 (11732012_x_at) / RFU MBOAT4 (11741988_at) / Fold change /veh MBOAT4 (11741988_at) / RFU 11764193_at / Fold change /veh 11764193_at / RFU TMEM53 (11763286_at) / Fold change /veh TMEM53 (11763286_at) / RFU MAGEB2 (11727129_at) / Fold change /veh MAGEB2 (11727129_at) / RFU TMEM200A (11744735_a_at) / Fold change /veh TMEM200A (11744735_a_at) / RFU CCDC152 (11751479_a_at) / Fold change /veh CCDC152 (11751479_a_at) / RFU FAM211A (11726209_a_at) / Fold change /veh FAM211A (11726209_a_at) / RFU RGS16 (11746705_a_at) / Fold change /veh RGS16 (11746705_a_at) / RFU VCAN (11755009_s_at) / Fold change /veh VCAN (11755009_s_at) / RFU RHOB (11743442_s_at) / Fold change /veh RHOB (11743442_s_at) / RFU RGS16 (11720943_a_at) / Fold change /veh RGS16 (11720943_a_at) / RFU RGS16 (11720944_at) / Fold change /veh RGS16 (11720944_at) / RFU, VPS4B / Fold change vs veh, VPS4B / RFU, CREB1 / Fold change vs veh, CREB1 / RFU, DNAJC13 / Fold change vs veh, DNAJC13 / RFU, GNAQ / Fold change vs veh, GNAQ / RFU, CDK5R1 / Fold change vs veh, CDK5R1 / RFU, ZRANB3 / Fold change vs veh, ZRANB3 / RFU, CUL4A / Fold change vs veh, CUL4A / RFU, CCNY / Fold change vs veh, CCNY / RFU, UFL1 / Fold change vs veh, UFL1 / RFU, COG3 / Fold change vs veh, COG3 / RFU, DIAPH2 / Fold change vs veh, DIAPH2 / RFU, SKA2 / Fold change vs veh, SKA2 / RFU, AFF3 / Fold change vs veh, AFF3 / RFU, LMF1 / Fold change vs veh, LMF1 / RFU, IPO11 / Fold change vs veh, IPO11 / RFU, DFFB / Fold change vs veh, DFFB / RFU, FOXP1 / Fold change vs veh, FOXP1 / RFU, CARD8 / Fold change vs veh, CARD8 / RFU, STRN3 / Fold change vs veh, STRN3 / RFU, ADK / Fold change vs veh, ADK / RFU, RASSF2 / Fold change vs veh, RASSF2 / RFU, WIPF1 / Fold change vs veh, WIPF1 / RFU, LARP1B / Fold change vs veh, LARP1B / RFU, RASA1 / Fold change vs veh, RASA1 / RFU, RB1 / Fold change vs veh, RB1 / RFU, PPFIA1 / Fold change vs veh, PPFIA1 / RFU, MAT2A / Fold change vs veh, MAT2A / RFU, CCT5 / Fold change vs veh, CCT5 / RFU, WDR92 / Fold change vs veh, WDR92 / RFU, CUX1 / Fold change vs veh, CUX1 / RFU, TTC7A / Fold change vs veh, TTC7A / RFU, TMEM135 / Fold change vs veh, TMEM135 / RFU, DEPTOR / Fold change vs veh, DEPTOR / RFU, CPM / Fold change vs veh, CPM / RFU, DNAJB6 / Fold change vs veh, DNAJB6 / RFU, CACNA2D3 / Fold change vs veh, CACNA2D3 / RFU, DTX4 / Fold change vs veh, DTX4 / RFU, TFCP2 / Fold change vs veh, TFCP2 / RFU, GMCL1 /// GMCL1P1 / Fold change vs veh, GMCL1 /// GMCL1P1 / RFU, AEBP2 / Fold change vs veh, AEBP2 / RFU, SNHG1 /// SNORD22 /// SNORD25 /// SNORD26 /// SNORD27 /// SNORD28 /// SNORD29 /// SNORD31 / Fold change vs veh, SNHG1 /// SNORD22 /// SNORD25 /// SNORD26 /// SNORD27 /// SNORD28 /// SNORD29 /// SNORD31 / Fold change (Aza/veh), C12orf56 (ProbeSet 11735607_a_at) / Fold change (ACY-1035/veh), C12orf56 (ProbeSet 11735607_a_at) / Fold change (Aza/veh), FGFR1OP (ProbeSet 11751329_s_at) / Fold change (ACY-1035/veh), FGFR1OP (ProbeSet 11751329_s_at) / Fold change (Aza/veh), VPS36 (ProbeSet 11739960_a_at) / Fold change (ACY-1035/veh), VPS36 (ProbeSet 11739960_a_at) / RFU SYPL1 (11715823_x_at) / Fold change /veh SYPL1 (11715823_x_at) / RFU IGFBP7 (11715501_s_at) / Fold change /veh IGFBP7 (11715501_s_at) / RFU REEP3 (11722064_at) / Fold change /veh REEP3 (11722064_at) / RFU IGLL1 (11728026_x_at) / Fold change /veh IGLL1 (11728026_x_at): dose or concentration left out as unconfirmed
Settings: MV-4-11 cells, 48 hours

`Nc1ccc(-c2cccs2)cc1NC(=O)c1ccc2c(c1)cc(C1CC1)n2CCN1CCOCC1` [ACY-1035] was tested, and the “RFU IRGQ (11745062_a_at)” value was 18.74 RFU.
